Compound: CCCCCc1ccc2c(c1)C(=O)c1ccccc1C2=O
- solubility (mole fraction) (in 2-butanone, 288.15 K): 0.0341
- solubility (mole fraction) (in 2-butanone, 293.15 K): 0.0431
- solubility (mole fraction) (in 2-butanone, 298.15 K): 0.0513
- solubility (mole fraction) (in 2-butanone, 303.15 K): 0.0587
- solubility (mole fraction) (in 2-butanone, 308.15 K): 0.0683
- solubility (mole fraction) (in 2-butanone, 313.15 K): 0.0828
- solubility (mole fraction) (in 2-butanone, 318.15 K): 0.105
- solubility (mole fraction) (in 2-butanone, 323.15 K): 0.129
- solubility (mole fraction) (in MIBK, 288.15 K): 0.0433
- solubility (mole fraction) (in MIBK, 293.15 K): 0.0539
- solubility (mole fraction) (in MIBK, 298.15 K): 0.0601
- solubility (mole fraction) (in MIBK, 303.15 K): 0.0676
- solubility (mole fraction) (in MIBK, 308.15 K): 0.0744
- solubility (mole fraction) (in MIBK, 313.15 K): 0.0836
- solubility (mole fraction) (in MIBK, 318.15 K): 0.104
- solubility (mole fraction) (in MIBK, 323.15 K): 0.126
- solubility (mole fraction) (in acetone, 288.15 K): 0.0225
- solubility (mole fraction) (in acetone, 293.15 K): 0.0299
- solubility (mole fraction) (in acetone, 298.15 K): 0.0376
- solubility (mole fraction) (in acetone, 303.15 K): 0.0443
- solubility (mole fraction) (in acetone, 308.15 K): 0.0517
- solubility (mole fraction) (in acetone, 318.15 K): 0.0815
- solubility (mole fraction) (in acetone, 323.15 K): 0.105
- solubility (mole fraction) (in acetonitrile, 288.15 K): 0.00299
- solubility (mole fraction) (in acetonitrile, 293.15 K): 0.00478
- solubility (mole fraction) (in acetonitrile, 298.15 K): 0.00811
- solubility (mole fraction) (in acetonitrile, 303.15 K): 0.0127
- solubility (mole fraction) (in acetonitrile, 308.15 K): 0.0203
- solubility (mole fraction) (in acetonitrile, 318.15 K): 0.051
- solubility (mole fraction) (in acetonitrile, 323.15 K): 0.0786
- solubility (mole fraction) (in ethanol, 288.15 K): 0.0029
- solubility (mole fraction) (in ethanol, 293.15 K): 0.00392
- solubility (mole fraction) (in ethanol, 298.15 K): 0.00531
- solubility (mole fraction) (in ethanol, 303.15 K): 0.00725
- solubility (mole fraction) (in ethanol, 308.15 K): 0.00988
- solubility (mole fraction) (in ethanol, 313.15 K): 0.0145
- solubility (mole fraction) (in ethanol, 318.15 K): 0.0195
- solubility (mole fraction) (in ethanol, 323.15 K): 0.0265
- solubility (mole fraction) (in ethyl acetate, 288.15 K): 0.0501
- solubility (mole fraction) (in ethyl acetate, 293.15 K): 0.0583
- solubility (mole fraction) (in ethyl acetate, 298.15 K): 0.0663
- solubility (mole fraction) (in ethyl acetate, 303.15 K): 0.0761
- solubility (mole fraction) (in ethyl acetate, 308.15 K): 0.088
- solubility (mole fraction) (in ethyl acetate, 313.15 K): 0.101
- solubility (mole fraction) (in ethyl acetate, 318.15 K): 0.12
- solubility (mole fraction) (in ethyl acetate, 323.15 K): 0.151
- solubility (mole fraction) (in isopropyl acetate, 288.15 K): 0.0522
- solubility (mole fraction) (in isopropyl acetate, 293.15 K): 0.0598
- solubility (mole fraction) (in isopropyl acetate, 298.15 K): 0.0708
- solubility (mole fraction) (in isopropyl acetate, 303.15 K): 0.0842
- solubility (mole fraction) (in isopropyl acetate, 308.15 K): 0.0974
- solubility (mole fraction) (in isopropyl acetate, 313.15 K): 0.114
- solubility (mole fraction) (in isopropyl acetate, 318.15 K): 0.137
- solubility (mole fraction) (in isopropyl acetate, 323.15 K): 0.163
- solubility (mole fraction) (in methanol, 288.15 K): 0.00131
- solubility (mole fraction) (in methanol, 293.15 K): 0.00199
- solubility (mole fraction) (in methanol, 298.15 K): 0.00271
- solubility (mole fraction) (in methanol, 303.15 K): 0.00364
- solubility (mole fraction) (in methanol, 308.15 K): 0.00502
- solubility (mole fraction) (in methanol, 313.15 K): 0.00682
- solubility (mole fraction) (in methanol, 318.15 K): 0.00928
- solubility (mole fraction) (in methanol, 323.15 K): 0.0131
- solubility (mole fraction) (in n-butanol, 288.15 K): 0.00826
- solubility (mole fraction) (in n-butanol, 293.15 K): 0.0111
- solubility (mole fraction) (in n-butanol, 298.15 K): 0.0154
- solubility (mole fraction) (in n-butanol, 303.15 K): 0.021
- solubility (mole fraction) (in n-butanol, 308.15 K): 0.0275
- solubility (mole fraction) (in n-butanol, 313.15 K): 0.0346
- solubility (mole fraction) (in n-butanol, 318.15 K): 0.0446
- solubility (mole fraction) (in n-butanol, 323.15 K): 0.0626
- solubility (mole fraction) (in n-propanol, 288.15 K): 0.00541
- solubility (mole fraction) (in n-propanol, 293.15 K): 0.00743
- solubility (mole fraction) (in n-propanol, 298.15 K): 0.0102
- solubility (mole fraction) (in n-propanol, 303.15 K): 0.0144
- solubility (mole fraction) (in n-propanol, 308.15 K): 0.02
- solubility (mole fraction) (in n-propanol, 313.15 K): 0.0265
- solubility (mole fraction) (in n-propanol, 318.15 K): 0.0346
- solubility (mole fraction) (in n-propanol, 323.15 K): 0.049
- solubility (mole fraction) (in sec-butanol, 288.15 K): 0.00259
- solubility (mole fraction) (in sec-butanol, 293.15 K): 0.00378
- solubility (mole fraction) (in sec-butanol, 298.15 K): 0.0056
- solubility (mole fraction) (in sec-butanol, 303.15 K): 0.00842
- solubility (mole fraction) (in sec-butanol, 308.15 K): 0.012
- solubility (mole fraction) (in sec-butanol, 313.15 K): 0.0182
- solubility (mole fraction) (in sec-butanol, 318.15 K): 0.0257
- solubility (mole fraction) (in sec-butanol, 323.15 K): 0.0388

From BigSolDB 2.1
